The subject of data set [1] is lung carcinoma (A549). The data set is described as follows: Cytotoxicity assay (resazurin reduction, 48 h), A549. It is filed as cell-based, human. The protocol: (§1) Human lung carcinoma (A549, ATCC # CCL-185™), human colorectal adenocarcinoma (DLD-1, ATCC # CCL-221™), human breast adenocarcinoma (MCF7, ATCC # HTB-22™), human prostate adenocarcinoma (PC-3, ATCC # CCL-1435™) and human normal skin fibroblasts (WS1, ATCC # CRL-1502™) cell lines were obtained from the American Type Culture Collection (ATCC). All cell lines were cultured in minimum essential medium containing Earle's salts and L-glutamine (Mediatech Cellgro, VA), to which were added 10% fetal bovine serum (Hyclone), vitamins (1×), penicillin (100 IU/mL) and streptomycin (100 μg/mL), essential amino acids (1×), and sodium pyruvate (1×) (Mediatech Cellgro, VA). Cells were kept at 37° C. in a humidified environment containing 5% CO2.
(§2) Exponentially growing cells were plated in 96-well microplates (Costar, Corning Inc.) at a density of 5×10^3 cells per well in 100 μL of culture medium and were allowed to adhere for 16 h before treatment. Increasing concentrations of each compound in biotechnology performed certified dimethyl sulfoxide (DMSO) (Sigma-Aldrich, Cat. # D2438) and the cells were incubated for 48 h. The final concentration of DMSO in the culture medium was maintained at 0.5% (v/v) to avoid solvent toxicity. Cytotoxicity was assessed using resazurin (O'Brien, J. et al., 2000. Eur J Biochem 267(17): 5421-6) on an automated 96-well Fluoroskan Ascent F1™ plate reader (Labsystems) using excitation and emission wavelengths of 530 and 590 nm, respectively. Fluorescence was proportional to the cellular metabolic activity in each well. Survival percentage was defined as the fluorescence in experimental wells compared to that in control wells after subtraction of blank values. Each experiment was carried out twice in triplicate. IC50 results are expressed as mean±standard deviation.
(§3) In vitro cytotoxic activity of lupane-type bidesmosidic saponins was evaluated against four human cancer cell lines including lung carcinoma (A549), and colorectal (DLD-1), breast (MCF7) and prostate (PC-3) adenocarcinomas. The parent triterpenoids betulin (1) (Gauthier et al., 2006, supra), betulinic acid (2) (Kessler, J. H. et al., Cancer Lett. 2007, 251: 132-145) and the clinically used etoposide were used as positive controls. The cytotoxicity of 28-O-β-D-glucopyranosides of betulin (Gauthier et al., 2006, supra) and betulinic acid (Baglin et al., 2003, supra) was also investigated. The cell viability was assessed through resazurin reduction test (O'Brien et al, 2000, supra) after 48 hours of incubation between the compounds and cells. Since resazurin (Alamar blue) is a nontoxic dye, measurements can be obtained without killing the cells as opposed to the standard MTT assay (Bellamy, W. T. Drugs 1992, 44: 690-708). The cytotoxicity results were expressed as the concentration inhibiting 50% of the cell growth (IC50).
(Alamar Blue is a resazurin reagent that responds to reducing activity.)

Data set [2] relates to breast adenocarcinoma (MCF7). In words: Cytotoxicity assay (resazurin reduction, 48 h), MCF7. The data set is classed as cell-based, human. The protocol: as §1, §2, §3
The subject of data set [3] is colorectal adenocarcinoma (DLD-1). The data set is described as follows: Cytotoxicity assay (resazurin reduction, 48 h), DLD-1. It is filed as cell-based. The following applies: mean ± SD. The protocol: as §1, §2, §3
For data set [4], the system named is tested cancer cell lines (A549, DLD-1, MCF7, PC-3). The data set is described as follows: Cytotoxicity assay (resazurin reduction, 48 h), summary over the tested cancer cell lines. The data set is classed as cell-based, human. The following applies: for cytotoxicity compared with reference or other tested compounds: tested cancer cell lines, P<0.05 where stated; for IC50: range or bound over the cell lines, read-out: IC50 against the tested cancer cell lines. The protocol:
as §1, §2
as §3, with “The cytotoxicity results were expressed as the concentration inhibiting 50% of the cell growth (IC50).” left out

Data set [5] concerns prostate adenocarcinoma (PC-3). The data set is described as follows: Cytotoxicity assay (resazurin reduction, 48 h), PC-3. It is filed as cell-based, human. The protocol: as §1, §2, §3
The subject of data set [6] is lung carcinoma (A549). The following applies: human lung carcinoma; footnote g: previously reported in Gauthier et al. 2006; cited from earlier work.
The subject of data set [7] is colorectal adenocarcinoma (DLD-1). The following applies: human colorectal adenocarcinoma; footnote g: previously reported in Gauthier et al. 2006; cited from earlier work.
Setting [8] is: human lung carcinoma, 48 h, resazurin, mean ± SD.
The mark [9] stands for this setting: human breast adenocarcinoma, 48 h, resazurin, mean ± SD, read-out: IC50 MCF7.
The mark [10] stands for this setting: human colorectal adenocarcinoma.
[11] abbreviates: human prostate adenocarcinoma, 48 h, resazurin, mean ± SD, read-out: IC50 PC-3.

“Also recorded” adds a separate entry of the source. Read-outs that look alike come from different tables or passages of the source.

The term IC50 denotes the concentration at which inhibition is half-maximal. Regarding “28-O-α-L-Rhamnopyranosyl betulinic acid 3β-O-α-L-rhamnopyranoside [Compound 22b]”, the concentration for half-maximal inhibition (IC50) in data set [1] (setting [8]) was found to be 7.2 ± 0.5 µM; in data set [2] (setting [9]), 6 ± 0.6 µM; in data set [3] (setting [10]) it was 7.3 ± 0.3 µM; in data set [5] (setting [11]), 7.2 ± 0.5 µM. Besides, in data set [4], the “cytotoxicity compared with reference or other tested compounds” value is listed as “significantly more active than their parent triterpenoids”.

In the case of “28-O-β-D-Glucopyranosyl betulin 313-O-α-L-rhamnopyranoside [Compound 16b]”, the IC50 in data set [1] (setting [8]) turned out to be 16.8 ± 0.9 µM; in data set [2] (setting [9]), 9 ± 0.7 µM; in data set [3] (setting [10]), 10.6 ± 0.9 µM; in data set [5] (setting [11]) it was 6.9 ± 0.4 µM.

“28-O-β-D-Glucopyranosyl betulin [Compound 28GBet, reference compound]”: the IC50 in data set [6], in data set [2] (setting [9]), in data set [3] (setting [10]) and in data set [5] (setting [11]) was greater than 100 µM each time.

Regarding `C=C(C)[C@@H]1CC[C@]2(C(=O)O)CC[C@]3(C)[C@H](CC[C@@H]4[C@@]5(C)CC[C@H](O)C(C)(C)[C@@H]5CC[C@]43C)[C@@H]12` [Compound 2, Betulinic acid], the IC50 in data set [6] was 10.3 ± 0.4 µM; in data set [7] it was 15 µM; in data set [2] (setting [9]), 41 ± 1 µM; in data set [5] (setting [11]) it was 40 ± 2 µM.

For the compound `C=C(C)[C@@H]1CC[C@]2(C(=O)O[C@@H]3O[C@H](CO)[C@@H](O)[C@H](O)[C@H]3O)CC[C@]3(C)[C@H](CC[C@@H]4[C@@]5(C)CC[C@H](O[C@@H]6OC[C@H](O)[C@H](O)[C@H]6O)C(C)(C)[C@@H]5CC[C@]43C)[C@@H]12` [Compound 3, 28-O-β-D-Glucopyranosyl betulinic acid 3β-O-α-L-arabinopyranoside], the IC50 in data set [1] (setting [8]) is 76 ± 4 µM; in data set [2] (setting [9]), 23 ± 1 µM; in data set [3] (setting [10]) it was 60 ± 5 µM; in data set [4], 23 to 76 µM; in data set [5] (setting [11]), 68 ± 7 µM.

Turning to `C=C(C)[C@@H]1CC[C@]2(CO[C@@H]3O[C@H](CO)[C@@H](O)[C@H](O)[C@H]3O)CC[C@]3(C)[C@H](CC[C@@H]4[C@@]5(C)CC[C@H](O[C@@H]6OC[C@H](O)[C@H](O)[C@H]6O)C(C)(C)[C@@H]5CC[C@]43C)[C@@H]12` [Compound 16a, 28-O-β-D-Glucopyranosyl betulin 313-O-α-L-arabinopyranoside], the IC50 in data set [1] (setting [8]) is greater than 100 µM; in data set [2] (breast adenocarcinoma (MCF7), read-out: IC50 against MCF7) it was 9.5 µM; in data set [3] (setting [10]) it was 19 ± 2 µM; in data set [5] (PC-3 cell line, read-out: IC50 against PC-3) it was 5.3 µM.

Regarding `C=C(C)[C@@H]1CC[C@]2(C(=O)O[C@@H]3O[C@H](CO)[C@@H](O)[C@H](O)[C@H]3O)CC[C@]3(C)[C@H](CC[C@@H]4[C@@]5(C)CC[C@H](O[C@@H]6O[C@@H](C)[C@H](O)[C@@H](O)[C@H]6O)C(C)(C)[C@@H]5CC[C@]43C)[C@@H]12` [Compound 19, 28-O-β-D-Glucopyranosyl betulinic acid 3β-O-α-L-rhamnopyranoside], the IC50 in data set [1] (setting [8]) is 23 ± 1 µM; in data set [2] (setting [9]), 5.7 ± 0.6 µM; in data set [3] (setting [10]), 11 ± 0.5 µM; in data set [5] (setting [11]) it was 11.2 ± 0.8 µM.

In the case of `C=C(C)[C@@H]1CC[C@]2(CO[C@@H]3O[C@H](CO)[C@@H](O)[C@H](O)[C@H]3O)CC[C@]3(C)[C@H](CC[C@@H]4[C@@]5(C)CC[C@H](O[C@@H]6O[C@H](CO)[C@@H](O)[C@H](O)[C@H]6O)C(C)(C)[C@@H]5CC[C@]43C)[C@@H]12` [Compound 21a, 28-O-β-D-Glucopyranosyl betulin 3β-O-β-D-glucopyranoside], the IC50 in data set [1] (setting [8]) is greater than 100 µM; in data set [2] (setting [9]) it was 14.5 ± 0.9 µM; in data set [3] (setting [10]), 27 ± 2 µM; in data set [5] (setting [11]) it was greater than 100 µM. In data set [2] (breast adenocarcinoma (MCF7)), the “cytotoxicity compared with betulinic acid, MCF7” value is on record as “significantly more active than betulinic acid (2)”.

For `C=C(C)[C@@H]1CC[C@]2(C(=O)O[C@@H]3O[C@H](CO)[C@@H](O)[C@H](O)[C@H]3O)CC[C@]3(C)[C@H](CC[C@@H]4[C@@]5(C)CC[C@H](O[C@@H]6O[C@H](CO)[C@@H](O)[C@H](O)[C@H]6O)C(C)(C)[C@@H]5CC[C@]43C)[C@@H]12` [Compound 21b, 28-O-β-D-Glucopyranosyl betulinic acid 3β-O-β-D-glucopyranoside], the IC50 in data set [1] (setting [8]) was greater than 100 µM; in data set [2] (setting [9]), 20 ± 2 µM; in data set [3] (setting [10]) it was greater than 100 µM; in data set [5] (setting [11]), 66 ± 3 µM. For the same compound, the “cytotoxicity compared with betulinic acid, MCF7” value in data set [2] (breast adenocarcinoma (MCF7)) is given as “significantly more active than betulinic acid (2)”.

In the case of `C=C(C)[C@@H]1CC[C@]2(CO[C@@H]3O[C@@H](C)[C@H](O)[C@@H](O)[C@H]3O)CC[C@]3(C)[C@H](CC[C@@H]4[C@@]5(C)CC[C@H](O[C@@H]6O[C@@H](C)[C@H](O)[C@@H](O)[C@H]6O)C(C)(C)[C@@H]5CC[C@]43C)[C@@H]12` [Compound 22a, 28-O-α-L-Rhamnopyranosyl betulin 3β-O-α-L-rhamnopyranoside], the IC50 in data set [1] (setting [8]) was 1.9 ± 0.1 µM; in data set [2] (setting [9]) it was 1.7 ± 0.2 µM; in data set [3] (setting [10]), 1.9 ± 0.1 µM; in data set [4], 1.7 to 1.9 µM; in data set [5] (setting [11]), 1.8 ± 0.1 µM. In data set [4], the “cytotoxicity compared with reference or other tested compounds” value is given as “significantly more active than their parent triterpenoids; also recorded: the most potent of all tested compounds”.

As to `C=C(C)[C@@H]1CC[C@]2(C(=O)O[C@@H]3O[C@H](CO)[C@@H](O)[C@H](O)[C@H]3O)CC[C@]3(C)C(CC[C@@H]4[C@@]5(C)CC[C@H](O)C(C)(C)[C@@H]5CC[C@]43C)[C@H]12` (stereo partly drawn) [Compound 28GBetA, 28-O-β-D-glucopyranosyl betulinic acid, reference compound], the IC50 in data set [1] (setting [8]), in data set [2] (setting [9]), in data set [3] (setting [10]) and in data set [5] (setting [11]) was greater than 100 µM in each case.

For `COc1cc([C@@H]2c3cc4c(cc3[C@@H](O[C@@H]3O[C@@H]5CO[C@@H](C)O[C@H]5[C@H](O)[C@H]3O)[C@H]3COC(=O)[C@H]23)OCO4)cc(OC)c1O` [Etoposide, etoposide, reference compound], the 50% inhibitory concentration (IC50) is 3.4 ± 0.1 µM in data set [1] (A549, human lung carcinoma, 48 h, resazurin, mean ± SD) and 27 ± 5 µM in data set [3] (DLD-1, human colorectal adenocarcinoma).

In data set [1] (A549, comparator named in text), “betulinic acid 3 β-O-α-L-rhamnopyranoside [reference compound]” registered an IC50 of 3.8 µM.

Source of the values: patent US20110224159A1, “BIDESMOSIDIC BETULIN AND BETULINIC ACID DERIVATIVES AND USES THEREOF AS ANTITUMOR AGENTS” (Universite du Quebec a Chicoutime, priority 2008, published 2011).
